From patent US10655140B2, “Herbicide-resistant protein, encoding gene and use thereof” (BEIJING DABEINONG BIOTECHNOLOGY CO., LTD., priority 2015, dated 2020)

Legend:
[1] = test system: Arabidopsis T1 plants transformed with 24DT22 nucleotide sequence, control nucleotide sequence and wild-type Arabidopsis plants; experiment: Herbicide resistance effect test of transgenic Arabidopsis T1 plants (spraying); format: in vivo, Arabidopsis thaliana; settings: Arabidopsis genotype 24DT22; for High resistant (number of plants): 560 g ae/ha (1-fold field concentration), growth consistent with blank solvent 7 days after spraying; for Moderate resistant (number of plants): curly rosette leaves 7 days after spraying; for Low resistant (number of plants): incapable of bolting 14 days after spraying
Excerpt: 24DT22 gene was used to transform Arabidopsis for the first time. At first, T1 transformants were selected from the background of un-transformed seeds, using glufosinate-ammonium selection scheme. About 20000 T1 seeds are screened among which 314 strains of T1 generation positive transformants (PAT gene) were identified, i.e. the transformation efficiency was about 1.6%. Herbicide resistance effect tests to 2,4-D dimethyl ammonium salt and agroxone of Arabidopsis T1 plants transformed with 24DT22 nucleotide sequence, control nucleotide sequence respectively and wild-type Arabidopsis plants were performed after 18 days of planting.
Arabidopsis T1 plants transformed with 24DT22 nucleotide sequence, control nucleotide sequence respectively and wild-type Arabidopsis plants were sprayed with 2,4-D dimethyl ammonium salt (560 g ae/ha, 1-fold concentration in field), agroxone (560 g ae/ha, 1-fold concentration in field) and blank solvent (water). Resistance conditions of the plants were counted 7 days and 14 days after spraying. Plants with growth conditions consistent with blank solvent (water) 7 days after spaying were classified as highly resistant plants; Plants with curly rosette leaves 7 days after spaying were classified as moderately resistant plants; Plants incapable of bolting 14 days after spaying were classified as low-resistant plants and the dead plants 14 days after spaying were classified as non-resistant plants. Because each Arabidopsis T1 plant is an independent transformation event, significant differences of individual T1 responses can be expected under a given dose.

[2] = test system: Soybean plants containing 24DT22 nucleotide sequence, control nucleotide sequence and wild type soybean plants; experiment: Herbicide resistance effect test of transgenic soybean T1 plants (spraying, damage degree); format: in vivo, soybean (Zhonghuang 13); settings: for Average damage % 6HAT: 6 hours after spraying; for Average damage % 2DAT: 2 days after spraying
Procedure: Herbicide resistance effects tests to 2,4-D dimethyl ammonium salt and agroxone of soybean plants containing 24DT22 nucleotide sequence and control nucleotide sequence respectively and wild type soybean plants (stages V3-V4) were performed respectively.
Soybean plants containing 24DT22 nucleotide sequence, control nucleotide sequence and wild type soybean plants were taken and spayed with 2,4-D dimethyl ammonium salt (2240 g ae/ha, four-folds concentration in field), agroxone (2240 g ae/ha, four-folds concentration in field) and blank solvent (water). Take statistics of the damage degree of each plant caused by herbicides according to the curling degree of leaves and the damage degree of growing point six hours ([…]), two days (2DAT), seven days (7DAT) and 14 days (14DAT) after spraying respectively: if leaves are flat like wild-type leaves and the growing point is intact, the damage degree is 0%; if leaves curl up and wilt and the growing point is died, the damage degree is 100%. There are three strains contained a transferred 24DT22 nucleotide sequence (S1, S2 and S3), two strains contained a transferred control sequence (S4 and S5) and one wild-type strain (CK1) in total; select 10-15 plants from each strain for testing.

[3] = test system: Corn plants containing 24DT22 nucleotide sequence, control nucleotide sequence and wild type corn plants; experiment: Herbicide-resistance effect test of transgenic corn T1 plants (prop/brace root development); format: in vivo, corn (Zong 31); settings: 21 days after spraying
Procedure: Herbicide resistance effects tests to 2,4-D dimethyl ammonium salt and agroxone of corn plants containing 24DT22 nucleotide sequence, control nucleotide sequence respectively and wild type corn plants (stages V3-V4) were performed respectively.
Corn plants containing 24DT22 nucleotide sequence, control nucleotide sequence respectively and wild type corn plants were taken and spayed with 2,4-D dimethyl ammonium salt (8960 g ae/ha, 16-folds concentration in field), agroxone (8960 g ae/ha, 16-folds concentration in field) and blank solvent (water) respectively. Prop root development was counted 21 days after spaying. Three strains (S6, S7 and S8) of corn plants transformed with 24DT22 nucleotide sequence, two strains (S9 and S10) of corn plants transformed with control nucleotide sequence and 1 strain of wild type (CK2) corn were selected and 10-15 plants from each stain were tested.

[4] = soybean strain S1 (24DT22), 2240 g ae/ha (4-fold field concentration)
[5] = soybean strain S2 (24DT22), 2240 g ae/ha
[6] = soybean strain S3 (24DT22), 2240 g ae/ha
[7] = corn strain S8 (24DT22), 8960 g ae/ha

SMILES: CNC.O=C(O)COc1ccc(Cl)cc1Cl [2,4-D dimethyl ammonium salt]
- High resistant (number of plants) [1]: 28
- Moderate resistant (number of plants) ([1]; 560 g ae/ha): 1
- Non-resistant (number of plants) ([1]; 560 g ae/ha, dead 14 days after spraying): 0
- Low resistant (number of plants) ([1]; 560 g ae/ha): 2
- Average damage % 6HAT [2, 4]: 6%
- Average damage % 6HAT [2, 5]: 11%
- Average damage % 6HAT [2, 6]: 3%
- Average damage % 2DAT [2, 6]: 0%
- Abnormal development of brace roots (number of plants) ([3]; corn strain CK2 (wild type), 8960 g ae/ha): 15
- Normal development of brace roots (number of plants) [3, 7]: 10

SMILES: Cc1cc(Cl)ccc1OCC(=O)O [agroxone]
- High resistant (number of plants) [1]: 25
- Moderate resistant (number of plants) ([1]; 560 g ae/ha): 3
- Low resistant (number of plants) ([1]; 560 g ae/ha): 1
- Average damage % 6HAT [2, 4]: 10%
- Average damage % 6HAT [2, 5]: 16%
- Average damage % 2DAT [2, 5]: 11%
- Average damage % 7DAT ([2]; soybean strain S2 (24DT22), 2240 g ae/ha, 7 days after spraying): 6%
- Average damage % 6HAT [2, 6]: 7%
- Average damage % 2DAT [2, 6]: 4%
- Normal development of brace roots (number of plants) ([3]; corn strain S6 (24DT22), 8960 g ae/ha (16-fold field concentration)): 13
- Normal development of brace roots (number of plants) ([3]; corn strain S7 (24DT22), 8960 g ae/ha): 14
- Normal development of brace roots (number of plants) [3, 7]: 13
- Abnormal development of brace roots (number of plants) ([3]; corn strain S10 (control sequence), 8960 g ae/ha): 11
